Assay: thermal stability of inert fluorescent tracers under boiler conditions
Assay type: physicochemical
Conditions: for thermally stable (substantially inert) for time: at 285 °C (545 °F); for thermally stable (substantially inert) at pressures up to: for time periods commensurate with commercial boiler holding times; for thermally stable (substantially inert) at temperatures up to: temperature limit, also printed as 1004 °F
Excerpt: Among the substantially boiler-system-inert fluorescent compounds are the mono-, di- and trisulfonated naphthalenes, including their water-soluble salts, particularly the various naphthalene mono- and disulfonic acid isomers, which are a preferred inert tracer(s) for use in the present invention. The naphthalene mono- and disulfonic acid isomers are water-soluble, generally available commercially and easily detectable and quantifiable by known fluorescence analysis techniques. Preferred naphthalene mono- and disulfonic acid isomers are the water-soluble salts of naphthalene sulfonic acid ("NSA"), such as 2-NSA, and naphthalene disulfonic acid ("NDSA" or "NDA"), for instance 1,5-NDSA. Many of these inert tracer(s) (mono-, di- and trisulfonated naphthalenes and mixtures thereof) are extremely compatible with the environments of most boiler systems.

SMILES | thermally stable (substantially inert) for time | thermally stable (substantially inert) at pressures up to | thermally stable (substantially inert) at temperatures up to
O=S(=O)(O)c1ccc2ccccc2c1 [2-NSA, 2-naphthalene sulfonic acid] | at least 24 hours | about 1,500 psig | at least 540 °C
O=S(=O)(O)c1cccc2c(S(=O)(=O)O)cccc12 [1,5-NDSA, 1,5-naphthalene disulfonic acid] | at least 24 hours | about 1,500 psig | at least 540 °C

From patent EP0640747B1, “Boiler system pH/phosphate program control method” (NALCO CHEMICAL COMPANY, priority 1993, dated 1995)
